According to patent publication US20240180880A1, “METHODS OF USING EHMT2 INHIBITORS IN TREATING OR PREVENTING BLOOD DISORDERS” (Epizyme, Inc., priority 2017, published 2024):
Read-outs that look alike come from different tables or passages of the source.

Tested on: 284 cell lines
Assay: cells
Conditions: Homo sapiens
Procedure: A screen of 284 cell lines to assess the antiproliferative effect of EHMT2 inhibition was conducted by treating cell lines in 384-well format with a half-log step dilutions of Compound 205 over 10 concentrations with a maximum concentration of 0.1% v/v DMSO. Cells were plated on Day 0 and treated with compound on Day 1. Culture medium was replaced on day 7 and cells redosed. After 10-day incubation, cells were fixed and stained with nuclear dye. Automated fluorescence microscopy was carried out using a Molecular Devices ImageXpress Micro XL high-content imager, and images were collected with a 4× objective. 16-bit TIFF images were acquired and analyzed with MetaXpress 5.1.0.41 software. Cell proliferation was measured by the fluorescence intensity of the incorporated nuclear dye. Cell count IC50 is the test compound concentration at 50% of maximal response of the untreated control.

In the case of `CNc1cc(C)nc(Nc2ccc(OC)c(OCCCN3CCCC3)c2)n1` [Compound 205], the IC50 (NCI-H508, read-out: Cell Count IC50, NCI-H508, Colon) is reported as > 10 µM, the IC50 (NCI-H520, read-out: Cell Count IC50, NCI-H520, Lung, NSCLC) is reported as > 10 µM and the IC50 (NCI-H596, read-out: Cell Count IC50, NCI-H596, Lung, NSCLC) is reported as > 10 µM. For the same compound, the IC50 (NCI-H661, read-out: Cell Count IC50, NCI-H661, Lung, NSCLC) was 0.1 to 1 µM, the IC50 (NCI-H747, read-out: Cell Count IC50, NCI-H747, Colon) was 1 to 10 µM and the IC50 (NTERA-2-cl-D1, read-out: Cell Count IC50, NTERA-2 cl.D1, Testis) was 1 to 10 µM. The IC50 (OE19, read-out: Cell Count IC50, OE19, Head and Neck) was > 10 µM, the IC50 (OE33, read-out: Cell Count IC50, OE33, Head and Neck) was > 10 µM and the IC50 (OVCAR-3, read-out: Cell Count IC50, OVCAR3, Female GU, Ovary) was > 10 µM. For the same compound, the IC50 (PANC-1, read-out: Cell Count IC50, PANC-1, Pancreas) was 1 to 10 µM, the IC50 (PFSK-1, read-out: Cell Count IC50, PFSK-1, Central Nervous System, Glioma) was > 10 µM and the IC50 (PSN1, read-out: Cell Count IC50, PSN-1, Pancreas) was 1 to 10 µM. For the same compound, the IC50 (RKOE6, read-out: Cell Count IC50, RKOE6, Colon) was 1 to 10 µM, the IC50 (RL95-2, read-out: Cell Count IC50, RL95-2, Female GU, Uterus) was > 10 µM and the IC50 (RPMI-6666, read-out: Cell Count IC50, RPMI 6666, Hematopoietic, Lymphoma) was 0.1 to 1 µM. The IC50 (RPMI-7951, read-out: Cell Count IC50, RPMI-7951, Skin, Melanoma) was 1 to 10 µM, the IC50 (RPMI-8226, read-out: Cell Count IC50, RPMI 8226, Hematopoietic, Myeloma) was 1 to 10 µM and the IC50 (RS4-11, read-out: Cell Count IC50, RS4;11, Hematopoietic, Leukemia) was 1 to 10 µM. For the same compound, the IC50 (Raji, read-out: Cell Count IC50, Raji, Hematopoietic, Lymphoma) was > 10 µM, the IC50 (Ramos, read-out: Cell Count IC50, Ramos (RA 1), Hematopoietic, Lymphoma) was 1 to 10 µM and the IC50 (SAOS-2, read-out: Cell Count IC50, SaOS2, Bone, Osteosarcoma) was 0.1 to 1 µM. The IC50 (SCC-4, read-out: Cell Count IC50, SCC-4, Head and Neck) was > 10 µM, the IC50 (SCC-9, read-out: Cell Count IC50, SCC-9, Head and Neck) was < 0.01 µM and the IC50 (SCC-25, read-out: Cell Count IC50, SCC-25, Head and Neck) was < 0.01 µM. For the same compound, the IC50 (SCaBER, read-out: Cell Count IC50, SCaBER, Bladder) was 1 to 10 µM, the IC50 (SHP77, read-out: Cell Count IC50, SHP-77, Lung, SCLC) was > 10 µM and the IC50 (SJRH30, read-out: Cell Count IC50, SJRH30, Soft & Connective Tissue, Sarcoma) was 1 to 10 µM. The IC50 (SJSA-1, read-out: Cell Count IC50, SJSA1, Bone, Osteosarcoma) was 1 to 10 µM, the IC50 (SK-BR-3, read-out: Cell Count IC50, SK-BR-3, Breast) was 1 to 10 µM and the IC50 (SK-LMS-1, read-out: Cell Count IC50, SK-LMS-1, Soft & Connective Tissue, Sarcoma) was > 10 µM. The IC50 (SK-MEL3, read-out: Cell Count IC50, SK-MEL-3, Skin, Melanoma) was 1 to 10 µM, the IC50 (SK-MEL-1, read-out: Cell Count IC50, SK-MEL-1, Skin, Melanoma) was 1 to 10 µM and the IC50 (SK-MEL-28, read-out: Cell Count IC50, SK-MEL-28, Skin, Melanoma) was 1 to 10 µM. For the same compound, the IC50 (SK-MES-1, read-out: Cell Count IC50, SKMES1, Lung, NSCLC) was 1 to 10 µM, the IC50 (SK-N-AS, read-out: Cell Count IC50, SK-N-AS, Central Nervous System, Neuroblastoma) was 1 to 10 µM and the IC50 (SK-N-FI, read-out: Cell Count IC50, SK-N-FI, Central Nervous System, Neuroblastoma) was > 10 µM. The IC50 (SK-NEP-1, read-out: Cell Count IC50, SK-NEP-1, Kidney) was > 10 µM, the IC50 (SK-OV-3, read-out: Cell Count IC50, SKOV3, Female GU, Ovary) was > 10 µM and the IC50 (SK-UT-1, read-out: Cell Count IC50, SK-UT-1, Soft & Connective Tissue, Sarcoma) was > 10 µM. For the same compound, the IC50 (SNB-19, read-out: Cell Count IC50, SNB-19, Central Nervous System, Glioma) was 1 to 10 µM, the IC50 (SNU1, read-out: Cell Count IC50, SNU-1, Stomach) was > 10 µM and the IC50 (SNU-5, read-out: Cell Count IC50, SNU-5, Stomach) was 1 to 10 µM. For the same compound, the IC50 (SNU-16, read-out: Cell Count IC50, SNU-16, Stomach) was 1 to 10 µM, the IC50 (SNU-423, read-out: Cell Count IC50, SNU-423, Liver) was 1 to 10 µM and the IC50 (SNU-C2B, read-out: Cell Count IC50, SNU-C2B, Colon) was 1 to 10 µM. It also gave an IC50 (ST486, read-out: Cell Count IC50, ST486, Hematopoietic, Lymphoma) of 1 to 10 µM, an IC50 (SU-DHL10, read-out: Cell Count IC50, SU-DHL-10, Hematopoietic, Lymphoma) of 1 to 10 µM and an IC50 (SU-DHL-4, read-out: Cell Count IC50, SU-DHL-4, Hematopoietic, Lymphoma) of 0.1 to 1 µM. For the same compound, the IC50 (SU-DHL-8, read-out: Cell Count IC50, SU-DHL-8, Hematopoietic, Lymphoma) was 1 to 10 µM, the IC50 (SU.86.86, read-out: Cell Count IC50, SU.86.86, Pancreas) was > 10 µM and the IC50 (SUP-T1, read-out: Cell Count IC50, SUP-T1, Hematopoietic, Lymphoma) was 1 to 10 µM. For the same compound, the IC50 (SW13, read-out: Cell Count IC50, SW-13, Endocrine, Adrenal gland) was > 10 µM, the IC50 (SW48, read-out: Cell Count IC50, SW48, Colon) was 1 to 10 µM and the IC50 (SW480, read-out: Cell Count IC50, SW480, Colon) was 1 to 10 µM. The IC50 (SW684, read-out: Cell Count IC50, SW684, Soft & Connective Tissue, Sarcoma) was 0.1 to 1 µM, the IC50 (SW837, read-out: Cell Count IC50, SW837, Colon) was 1 to 10 µM and the IC50 (SW872, read-out: Cell Count IC50, SW872, Soft & Connective Tissue, Sarcoma) was 1 to 10 µM. The IC50 (SW900, read-out: Cell Count IC50, SW900, Lung, SCLC) was 1 to 10 µM, the IC50 (SW948, read-out: Cell Count IC50, SW948, Colon) was > 10 µM and the IC50 (SW 954, read-out: Cell Count IC50, SW954, Female GU, Vulva) was > 10 µM. The IC50 (SW 962, read-out: Cell Count IC50, SW962, Female GU, Vulva) was > 10 µM, the IC50 (SW982, read-out: Cell Count IC50, SW982, Soft & Connective Tissue, Sarcoma) was > 10 µM and the IC50 (SW1088, read-out: Cell Count IC50, SW1088, Central Nervous System, Glioma) was 1 to 10 µM. The IC50 (SW1353, read-out: Cell Count IC50, SW1353, Bone, Osteosarcoma) was > 10 µM, the IC50 (SW1417, read-out: Cell Count IC50, SW1417, Colon) was 1 to 10 µM and the IC50 (SW1463, read-out: Cell Count IC50, SW1463, Colon) was 0.1 to 1 µM. It also gave an IC50 (SW1783, read-out: Cell Count IC50, SW1783, Central Nervous System, Glioma) of 1 to 10 µM, an IC50 (SW-403, read-out: Cell Count IC50, SW403, Colon) of 1 to 10 µM and an IC50 (SW-620, read-out: Cell Count IC50, SW620, Colon) of 1 to 10 µM. For the same compound, the IC50 (SiHa, read-out: Cell Count IC50, SiHa, Female GU, Cervix) was 1 to 10 µM and the IC50 (T47D, read-out: Cell Count IC50, T47D, Breast) was > 10 µM.
